Experimental data taken from US10106515B2, “1-(cyclopent-2-en-1-yl)-3-(2-hydroxy-3-(arylsulfonyl)phenyl)urea derivatives as CXCR2 inhibitors” (GLAXOSMITHKLINE INTELLECTUAL PROPERTY DEVELOPMENT LIMITED, priority 2014, dated 2018).

System: upregulation of CD11b in GROα stimulated neutrophils in human whole blood
Assay: Human whole blood assay (CD11b upregulation)
Assay type: cell-based
Conditions: Homo sapiens, Neutrophil, inhibition of CD11b upregulation, GROα 33 nM final, flow cytometry, read-out: pIC50 (human whole blood assay) (converted)
Method in brief: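 Heparinised human whole blood preincubated 15 min at 37 °C with compound (10-point, 1:3 dilutions), then stimulated with 33 nM final GROα for 15 min at 37 °C. CD11b-FITC/CD16-PE staining on ice, lysis/fixation, flow cytometry; neutrophils gated by side scatter and CD16.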

IC50: 39.8 nM
Compound: CC1=CCC[C@H]1NC(=O)Nc1ccc(Cl)c(S(=O)(=O)[C@@]2(C)CCOC2)c1O [Compound 195, 1-(4-chloro-2-hydroxy-3-(((S)-3-methyltetrahydrofuran-3-yl)sulfonyl)phenyl)-3-((R)-2-methylcyclopent-2-en-1-yl)urea]
